The values below come from EP0073758B1, “TREATMENT OF INFLAMMATORY VIRAL INFECTIONS, ACNE, DERMATITIS AND ARTHRITIS CONDITIONS” (priority 1981, dated 1982).

One series relates to Herpes Labialis. Format: in vivo, patients. How it is done:
In an informal clinical study 41 patients with symptoms of Herpes Labialis were treated with oral dosages of phenolphthalein. The patients were treated at different times over a period of about two months. The initial dosage was one hundred milligrams administered every 8 hours for the first day and every 12 hours thereafter. […] Of the 41 patients treated, 39 made complete recovery within two days without any noticeable development of the cold sore. The other two patients made complete recovery with no swelling or visible evidence of the cold sore remaining after three days. A control group of 24 patients with Herpes Labialis history were selected at random from clinical files as a control group. Of the 24 patients, 5 were excluded because of the total absence of early indications of infection. The other 19 patients were treated conventionally over a 10 day period. Only 4 experienced even partial relief from developing cold sores and 15 developed active cold sores and blisters which lasted up to 4 weeks.
The results of this informal study indicate that phenolphthalein is a very effective drug for preventing and arresting the development of cold sores and blisters at the time of initial appearance in patients.

Series [1] has as its system Herpes Simplex infections. Nature of the series: oral dosages administered to victims of Herpes Simplex infections. Format: in vivo.
Series [2] in a line: oral dosages against canker sores. Format: in vivo.
The nature of series [3]: topical application in acne. It is filed as in vivo. Conditions: 500 milligrams in 57 g of carrier. From the text: In preparing topical applications for the treatment of external conditions, such as dermatitis and acne as well as arthritis, rheumatism, and related conditions, it is within the scope of the invention to formulate phenolphthalein with suitable carriers and bases to aid in the application to, or absorption into, the target or affected area. One group of carriers is the oil-based carriers for external application this group includes dimethyl sulfoxide (DMSO), petrolatum, mineral oil, and anhydrous lanolin. In most topical applications the concentration of the phenolphthalein in the carrier may vary widely. […] It is believed that a concentration of at least about 250 milligrams per 28 g of carrier will be effective.

Another series can be described thus: solubility in DMSO. Format: physicochemical. Conditions: per one milliliter DMSO; maximum solubility not determined. On the procedure:
Topical applications were prepared for the treatment of the external conditions, deseases and symptoms of arthritis, rheumatism, and rheumatoid arthritis or similar conditions. Phenolphthalein was formulated with a topical carrier of dimethyl sulfoxide (DMSO) to aid in the application of phenolphthalein to, and its absorption into, the affected area for the relief of pain and the treatment of the area. It has been discovered that DMSO is an especially effective solvent for phenolphthalein. As little as one milliliter of liquid DMSO will dissolve two-hundred milligrams of phenolphthalein, or powders containing phenolphthalein. This factor coupled with the known ability of DMSO to penetrate organic tissue are believed to allow smaller dosages of phenolphthalein to be used in both oral and topical applications as well as in preparation of injectable solutions. For example the DMSO/phenol- phthalein solution can be formulated into topical carriers which should enhance the penetration of phenolphthalein into the skin, or ingested.

The conditions of series [4]: stated as well known; cited from earlier work.
The conditions of series [5]: ingested into the human body; rest excreted in the feces; cited from earlier work.

Regarding `O=C1OC(c2ccc(O)cc2)(c2ccc(O)cc2)c2ccccc21` [phenolphthalein, 3,3 - Bis(p - hydroxyphenyl) - phthalide], the laxative effect entry in the series on Herpes Labialis (human, in vivo, po) is on record as “complaints related to the laxative effect”. In addition, in the series with Herpes Labialis (of the 41 patients treated, oral, initially one hundred milligrams, later 30 milligrams, every 8 hours first day, every 12 hours thereafter), the “patients who made complete recovery within two days without any noticeable development of the cold sore” value worked out at 39. Also, in the series on Herpes Labialis (of the 41 patients treated, same oral regimen), the “patients who made complete recovery with no swelling or visible evidence of the cold sore remaining after three days” value is on record as “two”. Also, the “follow-up observations: development of Herpes Labialis” value with Herpes Labialis (the 41 patients treated) is given as “no development of Herpes Labialis”. In addition, in series [1], the “treatment of Herpes Simplex infections, including cold sores, fever blisters and Herpes Genitalis” value is on record as “successfully administered”. For the same compound, the “relief and cure of canker sores” value in series [2] is “effective to relieve and cure canker sores within a matter of hours”. In series [3], the effect against acne entry was “effective against acne”. For the same compound, in “solubility in DMSO”, the “amount dissolved by one milliliter of liquid DMSO” value is given as “two-hundred”. The solubility in water result in series [4] is on record as “highly insoluble in water”. The “active drug in solution absorbed into the blood stream” value in series [5] was “less than 15%”.
